Source: patent US10392363B2, “Methods for treating protozoan infections” (Neoculi Pty Ltd., priority 2014, dated 2019)

Experiments:
[1] = Microsomal stability, mouse; format: in vitro ADME; conditions: mouse, 1 μM
Procedure: (§1) Incubation methods: The metabolic stability assay was performed by incubating each test compound (at 1 μM) with human and mouse liver microsomes (Xenotech, Lot#1210057 and 1310211, respectively) at 37° C. and 0.4 mg/mL protein concentration. The metabolic reaction was initiated by the addition of an NADPH-regenerating system (i.e. NADPH is the cofactor required for CYP450-mediated metabolism) and quenched at various time points over a 60 minute incubation period by the addition of acetonitrile containing diazepam as internal standard. Control samples (containing no NADPH) were included (and quenched at 2, 30 and 60 minutes) to monitor for potential degradation in the absence of cofactor. Analytical conditions: Instrument: Waters Micromass Xevo G2 QTOF coupled to a Waters Acquity UPLC; Detection: Positive electrospray ionisation under MSE mode; Cone Voltage 30 V; Column: Ascentis Express Amide column (50×2.1 mm, 2.7 μm); LC conditions: Gradient cycle time: 4 minutes; Injection volume: 5 μL; Flow rate: 0.4 mL/min; Mobile phase: Acetonitrile-water gradient with 0.05% formic acid Metabolite; Identification: A metabolite screen was not included in this study, however, since data was acquired using MSE mode, which allows for the simultaneous acquisition of low and high collision energy MS spectra, a post-hoc metabolite search may be conducted at a later date if warranted. […]

[2] = system: Leishmania donovani promastigotes; experiment: L. donovani screening (Alamarblue); format: cell-based
Method in brief: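 Growth read as Alamarblue fluorescence (530 nm excitation, 590 nm emission) after culture at 27° C. Single-point screen: 10 μM compound, 4×10^5 cells/ml, 96 h; titration: 0.005–10 μM in third-steps, 1×10^6 cells/ml, 72 h, using exponentially growing procyclic promastigotes.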

[3] = Microsomal stability, human; format: in vitro ADME; conditions: human, 1 μM
Procedure: as §1

[4] = system: Giardia duodenalis trophozoites; experiment: Resazurin reduction assay (Example 3); format: cell-based; conditions: 42 hours, then 6 hours with Alamarblue
Procedure: Giardia trophozoites were grown until confluent. The media was replaced with fresh media and they were cold shocked for 40 minutes (as above). Cells were diluted to a concentration of ˜500 000 cells/ml and 100 μl were added to each well of the assay plate (except media only control). The assay was incubated in an anaerobic environment (candle jar) for 42 hours at 37° C. […] After incubation the absorbance of each sample was read at 570 and 630 nm. The percent reduction of resazurin (Alamarblue™) was calculated and data was analysed with GraphPad Prism v6 software. Assay set-up: the assay was performed in 96 well plates in a total volume of 200 μl. 100 μl of NCL812 or NCL062 (concentration of 25.6 mg/ml in DMSO) or metronidazole (concentration 5 mg/ml in DMSO) stock was added to 9.9 ml of TYI-S-33 medium, then serially diluted 1:2 in the same medium. Cells were added as above.

[5] = Cell toxicity assay (WST-1); format: cell-based, mouse; conditions: mouse, RAW 264.7, 24 hours, read-out: GI50 macrophage
Method in brief: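 RAW 264.7 macrophages plated at 2×10^4 cells/ml, rested 2 h at 37 °C, then exposed to compounds (from DMSO) for 24 h. Metabolic activity read by WST-1 at 450 nm after 1 h; IC50 derived, selectivity index as macrophage IC50 divided by antiparasitic IC50.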

N=C(N/N=C/c1ccc(Cl)cc1)N/N=C/c1ccc(Cl)cc1 [NCL812, 1,3-bis[(E)-(4-chlorophenyl)methyleneamino]guanidine]
predicted hepatic extraction ratio (EH) [1]: < 0.3
L. donovani SI ([2]; GI50 of macrophages divided by IC50 of parasites): 5.12
IC50 ([2]; Leishmania donovani, 72 h): 2.9 ± 0.24 µM
predicted hepatic extraction ratio (EH) [3]: < 0.3
metabolic activity of the trophozoites (percentage of reduction of resazurin) [4]: reduction in the metabolic activity
GI50 at 24 h [5]: 14.8 ± 1.34 µM
